Assay results taken from publication PMC6973020, “Quinoline‐Conjugated Ruthenacarboranes: Toward Hybrid Drugs with a Dual Mode of Action” (Chemmedchem, 2019).

Assays:
[1] = Ester hydrolysis in PBS/DMSO at pH 7.4 (time‐resolved UV‐vis); type: physicochemical; conditions: PBS/DMSO (1 vol%), 20 μM
Text: Following our recent investigations on the self‐assembly behavior of ruthenacarborane complexes in aqueous solutions at physiologic pH,9, 10 the behavior of free acid 3 and ester 4 in aqueous solution was studied via UV‐vis spectroscopy and Nanoparticle Tracking Analysis (NTA) in phosphate‐buffered saline (PBS)/DMSO mixtures (pH 7.4). UV‐vis spectroscopy is a useful tool to follow the ester hydrolysis over time, when a UV‐(vis)‐active chromophore is present (in the case of 4, the quinoline ring). Experiments were carried out at room temperature (23 and 25 °C, for UV‐vis and NTA, respectively), to simulate the conditions of the working solutions used for cell cultures, and at 37 °C (UV‐vis), to simulate the conditions of incubation of cells.
UV‐vis spectroscopy. Stock solutions of 3, 4 and 8‐hydroxyquinoline (8‐HQ) in distilled DMSO were freshly prepared before use ([3]=2.11 mM; [4]=6.56 mM; [8‐HQ]=25.76 mM). An aliquot of the DMSO stock solution of 3, 4 or 8‐HQ was added to 3 mL PBS solution, so that the final concentration was 20 μM. DMSO content was adjusted to 1 vol % (considering the amount of DMSO from the stock solutions) before addition of the ruthenacarborane, in all samples. Time‐resolved UV‐vis spectra of 4 were measured, over a period of 26 h at room temperature (23±1 °C) and at 37±0.3 °C to follow hydrolysis of the ester bond of 4 at physiologic pH (7.4). PBS/DMSO solutions of 3 and 8‐HQ were also measured, as references. All measurements were corrected by subtracting the blank (PBS+1 vol % DMSO). Experiments were run in duplicate.

LN229 cells = assay: CFSE staining, flow cytometry, LN229; type: cell-based, human; conditions: LN229, 40 μM, 72 h
Method: Flow cytometry. For gaining better insights into the mechanisms of action of the ruthenium complexes, MCF‐7 and LN229 cells incubated with an IC50 dose of 3 or 4, were analyzed via flow cytometry. Several staining protocols were carried out in parallel, in independent experiments: i) AnnV/PI for the detection of apoptotic cell death, ii) AO for the detection of acidic vacuoles, iii) ApoStat for checking caspase activation, iv) CFSE for detecting interference with cellular proliferation, and v) DAPI for the detection of morphological signs of apoptosis. Untreated cells or cells treated only with BSA (control) were also measured, as reference for BSA‐free and BSA‐containing drug formulations, respectively. […] Channels FL1 (green emission), FL2 (orange emission) and/or FL3 (dark red emission) were used for fluorescence detection, according to the specific staining agent. Sideward Scatter (SSC) for MCF‐7 cells treated with 4 or BSA−4 was also analyzed, with respect to the control, for detection of shifts of cell granularity. […]
Staining Protocols for Flow Cytometric Analysis. […] Finally, cells were washed in PBS, resuspended in PBS (or AnnV‐binding buffer for AnnV/PI), and analysed. […] Cells were then washed, trypsinised, dissolved in PBS and analysed by CyFlow® Space Partec using the PartecFloMax® software (Partec GmbH, Münster, Germany). […]

In the case of “closo ‐[3‐(η^6‐p‐Cymene)‐1‐(quinolin‐8‐yl‐acetate)‐3,1,2‐RuC2B9H10] [Compound 4]”, the “time after which hydrolysis is pronounced” value ([1]; pH 7.4, 23 °C) is reported as 5 h, the “time to complete hydrolysis of the ester bond” value ([1]; pH 7.4, 23 °C) is reported as 23 h and the “time to complete hydrolysis of the ester bond” value ([1]; pH 7.4, 37 °C) is reported as 2.5 h. The “cellular proliferation (CFSE staining)” value (LN229 cells) was “strong inhibition of cellular proliferation”.
